Assay results taken from US10899741B2, “3,4-bipyridyl pyrazole derivative, and preparation method therefor and medical application thereof” (Jiangsu Hengrui Medicine Co., Ltd., priority 2016, dated 2021).

Key:
[1] = Toxicity assay, repeated intragastrical administration to SD rats for 7 days; assay type: in vivo; details: 30 and 100 mg/kg qd
Experimental: Evaluation of the toxicity of TGFβ inhibitor Compound 1 repeatedly intragastrically administered to SD rats for 7 days.
Twenty six SPF grade SD rats (approximately 180˜200 g, 6-7 weeks old, half male and half female) were purchased from Shanghai Jiesijie Laboratory Animal Co., Ltd.
Feeding conditions: SPF grade, animals were housed in plastic transparent rat cages, and 2-3 rats per cage. Room temperature: 20-26° C., relative humidity: 40-70%. 12 hours light/12 hours dark were alternated. The rats had free access to pellet feed for rats. The rats had free access to high-temperature sterilized water via drinking bottle.
The animals were divided randomly into 5 groups, i.e. solvent control group, compound 1—30 mg/kg group, compound 1—100 mg/kg group, and the corresponding toxicokinetics groups. There were 6 rats in solvent control group, compound 1—30 mg/kg group and compound 1—100 mg/kg group, and there were 4 rats in each corresponding toxicokinetics groups, half male and half female.
The dose of the test compound in the 7-day toxicity assay in rats was 30 and 100 mg/kg (qd), respectively, and the administration was continued for 7 days. Administration route: intragastrical administration, administration dosage: 10 ml/kg, administration frequency and administration period: daily morning administration, continuous administration for 7 days.
The results of various indicators were entered into computer Excel and entered and processed by SPSS software package.
The clinical symptom, food intake and anatomical gross observation were not processed statistically, and only the observation data of the observation items in the protocol were listed. Indicators such as body weight, organ weight, and clinical examination were processed statistically using SPSS.

TGFβRI kinase ALK5 = TGFβRI kinase ALK5 (Homo sapiens (Human), UniProt P36897); experiment: Inhibition of TGFβRI kinase ALK5 activity (ADP-Glo kit); assay type: biochemical; details: ATP 50 μM, 27° C. 2.5 hours
Chain of TGFβRI kinase ALK5 (P36897 34-503): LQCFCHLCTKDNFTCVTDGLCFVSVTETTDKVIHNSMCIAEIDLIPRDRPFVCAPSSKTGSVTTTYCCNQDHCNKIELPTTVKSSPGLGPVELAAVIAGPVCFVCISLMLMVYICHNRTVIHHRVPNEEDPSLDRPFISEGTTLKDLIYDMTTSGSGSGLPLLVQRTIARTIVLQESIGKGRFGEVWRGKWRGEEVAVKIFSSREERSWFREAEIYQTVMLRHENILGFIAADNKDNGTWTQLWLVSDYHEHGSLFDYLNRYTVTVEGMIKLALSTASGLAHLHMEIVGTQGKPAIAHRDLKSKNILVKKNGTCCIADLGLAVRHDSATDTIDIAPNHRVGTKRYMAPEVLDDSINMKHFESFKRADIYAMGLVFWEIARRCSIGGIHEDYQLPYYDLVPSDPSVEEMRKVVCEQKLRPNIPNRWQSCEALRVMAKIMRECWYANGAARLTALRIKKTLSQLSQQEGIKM
Experimental: The inhibition effect of TGFβRI kinase activity in vitro was determined by the following method.
The inhibition effect of the compounds of the present invention on TGFβRI kinase ALK5 activity was determined by the following experimental method:
TGFβRI kinase assay kit (V4093, Promega) was used to assay enzyme activity. 2 μl of enzyme solution (the final concentration of enzyme in the reaction system was 2 ng/μL) formulated with reaction buffer (40 mM Tris pH 7.5, 20 mM MgCl2, 0.1 mg/ml BSA), 1 μl of a 3-fold gradient dilution of the compounds dissolved in 5% DMSO, and 2 μl of a mixed solution of ATP and TGFβRI substrate peptide (the final concentration of ATP was 50 μM, and the final concentration of substrate was 0.2 μg/μL) were added successively to a 384-well plate (4514, Corning). After reaction at 27° C. for 2.5 hours, 5 μl of ADP-Glo solution in the kit was added to each well, then the plate was placed at 27° C. for 40 minutes. 10 μl of kinase assay reagent was then added to each well, then the plate was placed at 27° C. for 30 minutes. The chemiluminescence signal values were measured with a Victor 3 (PerkinElmer) multi-function microplate reader. The IC50 values of the compounds for enzyme inhibition were calculated using Graphpad prism software based on each concentration of the compound and the corresponding signal value thereof.

[2] = tested on: murine melanoma cell B16-F1 xenograft; experiment: Therapeutic effect on B16-F1 xenograft C57 mice; assay type: in vivo
Experimental: Evaluation of the inhibition effect of the compound of Example 1 on the growth of murine melanoma cell B16-F1 xenograft on C57 mice.
Compound 1 was formulated into a 5 mg/ml aqueous solution using 0.5% CMC-Na+0.25% (v/v) Polysorbate 80. The administration concentration was 50 mg/kg, and the oral volume for intragastrical administration was 10 ml/kg.
Female C57BL/6J mice for laboratory use were purchased from SINO-BRITISH SIPPR/BK LAB. ANIMAL LTD., CO (Shanghai, China, Certificate No.: SCXK (Shanghai) 2008-0016), and the body weight of mice was from 16 to 20 g when purchased. After the animals were purchased, the test was started after 3 days of adaptive feeding. Feeding conditions: SPF grade. Animal feeding method: 12/12 hours light/dark cycle, temperature 23±1° C., humidity 40-50%, the animals were fed with standard sterilized murine feed, and had free access to food and water.
The C57 mice after adaptive feeding were fasted overnight in a metabolic cage, and divided randomly into the following groups after weighing: blank control group and Compound 1 group, 10 mice per group. The skin preparation on the right flank of C57 mice was carried out one day in advance, B16-F1 cells were subcutaneously inoculated ([…] cells per mouse), and administration was started on the third day after inoculation. Each mouse was intragastrically administrated with Compound 1 (i.g., 10 ml/kg) twice a day, and the blank group was intragastrically administrated with the corresponding solvent. The tumor volume was measured twice a week, the body weight was weighed and the data were recorded.
Excel statistical software was used: the average value was calculated by avg; the SD value was calculated by STDEV; the SEM value was calculated as STDEV/SQRT: the difference between the groups P value was calculated by TTEST.
The calculation formula of tumor volume (V) is: V=½×Llength×Lshort^2
Tumor inhibition rate (%)==(C−T)/C (%)
Wherein V0 and VT are the tumor volumes at the beginning of the test and at the end of the test, respectively. C and T are the average tumor volumes of the Blank group and the test group at the end of the test, respectively.

NIH3T3 cell = experiment: Inhibition of NIH3T3 cell proliferation (CellTiter-Glo); assay type: cell-based; details: NIH3T3, 72 hours, 0.5% FBS; for IC50: Mus musculus
Experimental: The inhibition effect of the compounds of the present invention on NIH3T3 cell proliferation was determined by the following in vitro test.
The inhibition effect of the compounds of the present invention on NIH3T3 cell proliferation was determined by the following experimental method:
On a 96-well white plate with transparent bottom (3903, Corning), 100 μL of NIH3T3 cell (GNM6, Cell Bank of Typical Culture Collection Committee of Chinese Academy of Sciences) was seeded in a DMEM medium containing 10% FBS (SH1-30243.01, GE) in each well. The seeding density is 2000 cells/well. The cells were incubated overnight at 37° C., in 5% CO2. After overnight incubation, each well was replaced with 90 μL of DMEM medium containing 0.5%0 FBS. 10 μl of a 3-fold gradient dilution of the compounds with DMEM medium containing 0.5% FBS was then added, and the plate was incubated for 72 hours in a cell incubator at 37° C., in 5% CO2. Finally, 50 μL of CellTiter-Glo (G7573, Promega) was added to each well. After incubation for 10 minutes at room temperature, the chemiluminescence signal values were measured with a Victor 3 microplate reader (PerkinElmer). The IC50 values of the compounds were calculated using Graphpad Prism software based on each concentration of the compound and the corresponding signal value thereof.

| Compound | Blood biochemical indicators ([1]; 7 days) | Coagulation function and urine indexes compared with the solvent control group ([1]; 7 days) | Food intake ([1]; 7 days) | Safety under the conditions of this assay ([1]; 7 days) | Clinical observation of the animals during the administration ([1]; 7 days, intragastrical) | Body weight and body weight growth rate compared with the solvent control group ([1]; 7 days, p>0.05) | Gross pathological anatomy (autopsy) ([1]; after the last administration) | IC50 (TGFβRI kinase ALK5) [nM] | Effect on the body weight of the mice ([2]; 50 mg/kg i.g. twice a day) | Tumor volume compared with the blank control group ([2]; Day 19, 50 mg/kg i.g. twice a day) | Average tumor volume d0 ([2]; d0, 50 mg/kg po bid/20d) [mm^3] | Average tumor volume d22 ([2]; d22, 50 mg/kg po bid/20d) [mm^3] | IC50 (NIH3T3 cell) [nM] | Maximum inhibition rate (%) (NIH3T3 cell) |
| --- | --- | --- | --- | --- | --- | --- | --- | --- | --- | --- | --- | --- | --- | --- |
| Cc1cccc(-c2nn(C3CCC3)cc2-c2ccnc(-c3ccc(S(C)(=O)=O)cc3)c2)n1 [Example 1, 4-(1-Cyclobutyl-3-(6-methylpyridin-2-yl)-1H-pyrazol-4-yl)-2-(4-(methylsulfonyl)phenyl)pyridine] | No toxicological changes | no obvious abnormalities | no obvious change | good safety | no obvious abnormality | no significant difference | no obvious abnormalities | 208 | no effect | significantly smaller | 0.00 | 301.53 | 88 | 105 |
| Cc1cccc(-c2nn(C3CC3)cc2-c2ccnc(-c3ccc(S(C)(=O)=O)cc3)c2)n1 [Example 2, 4-(1-Cyclopropyl-3-(6-methylpyridin-2-yl)-1H-pyrazol-4-yl)-2-(4-(methylsulfonyl)phenyl)pyridine] |  |  |  |  |  |  |  | 270 |  |  |  |  | 194 | 107 |
